What all share (type): cell-based, human
Test [1] concerns HTT. Put plainly: HiBiT protein abundance assay, HTT. Conditions: Homo sapiens, K562, 24 h, modified K562 cells. As to the method: (§1) Compounds described herein were used to screen for effects on quantitative protein abundance using a HiBit assay system (Promega). Quantitative protein abundance was determined by measuring the protein levels of HiBit-tagged protein targets expressed in cell culture via luminescence using the Nano-Glo HiBiT Lytic Detection System, which uses a split complementation assay format to reconstitute NanoBiT enzyme to generate a luminescent signal. A protein abundance assay was developed such that endogenous protein targets could be modified with the HiBiT peptide tag and their abundance could be assessed after compound treatment. Briefly, K562 cell lines containing a HiBiT-modification were treated with various compounds described herein (e.g., compounds of Formulas (I), (II), or (III)). After treatment for 24 hours, the protein abundance of a specific target was determined by measuring luminescence.
(§2) Cells were maintained in IMIDM with 10% FBS. Before the assay, cells were diluted with […] growth media (IMIDM+[…] media) and were seeded in a 384-well plate at a density of 10000 cells/well (for each cell line listed in Table 12). Each compound was prepared as a 10-point 3-fold serial dilution in DMSO with the top dose at a final concentration of 10 μM in the well. Unmodified K562 cells were added at the previously specified density with DMSO to serve as an assay baseline and positive control (PC) and DMSO only with the respective modified cell lines was added to the negative control (NC) columns. Final DMSO concentration was kept at or below 0.25%. Treated cell plates were placed in an incubator at 37° C. with 5% CO2 for 24 hours. After 24 hours, 25 μL of Complete HiBit Lytic reagent was added to each well at room temperature (e.g. one plate requiring 10 mL Lytic Buffer, 100 μL LgBiT Protein, 200 μL Lytic Substrate), shaken for 5 minutes at 600 RPM, then left to sit for 10 minutes for signal to stabilize before reading on a Spark Cyto plate reader (Tecan) with a 500 ms measurement time.
(§3) To determine compound effects on protein abundance of each target in Table 12, the percent response for each respective cell line was calculated at each compound concentration as follows:
(§4) For the normalized response at each concentration, a four-parameter logistical regression was fit to the data and the response was interpolated at the 50% value to determine a concentration for protein abundance at 50% (IC50) the untreated control.
(The HiBiT peptide binds its large partner to form an active luciferase.)

In test [2] the test system is MYB. Put plainly: HiBiT protein abundance assay, MYB. Conditions: Homo sapiens, K562, 24 h, modified K562 cells. As to the method:
as §1, §2, §3, §4

Test [3] has as its system Target C. Put plainly: Splicing RT-qPCR panel, Target C canonical junction (CJ) mRNA. Conditions: Homo sapiens, read-out: Target C IC50 (decrease in CJ mRNA levels). The protocol: (§5) Compounds described herein were used to modulate RNA transcript abundance in cells. The expression of a target mRNA was measured by detecting the formation of an exon-exon junction in the canonical transcript (CJ). A compound mediated exon-inclusion event was detected by observing an increase in formation of a new junction with an alternative exon (AJ). Real-time qPCR assays were used to detect these splicing switches and interrogate the potency of various compounds towards different target genes. A high-throughput real time quantitative PCR (RT-qPCR) assay was developed to measure these two isoforms of the mRNA (CJ and AJ) for exemplary genes, such as HTT, SMN2, and MYB, together with a control housekeeping gene, GAPDH or GUSB or PPIA, used for normalization. Briefly, the A673 or K562 cell line was treated with various compounds described herein (e.g., compounds of Formula (I)). After treatment, the levels of the HTT, MYB, or SMN2 mRNA targets were determined from each sample of cell lysate by cDNA synthesis followed by qPCR.
(§6) The A673 cell line was cultured in DMEM with 10% FBS. Cells were diluted with full growth media and plated in a 96-well plate (15,000 cells in 100 ul media per well). The plate was incubated at 37° C. with 5% CO2 for 24 hours to allow cells to adhere. An 11-point 3-fold serial dilution of the compounds was made in DMSO then diluted in media in an intermediate plate. Compounds were transferred from the intermediate plate to the cell plate with the top dose at a final concentration of 10 uM in the well. Final DMSO concentration was kept at or below 0.25%. The cell plate was returned to the incubator at 37° C. with 5% CO2 for an additional 24 hours.
(§7) The K562 cell line was cultured in IMDM with 10% FBS. For K562, cells were diluted with full growth media and plated in either a 96-well plate (50,000 cells in 50 uL media per well) or a 384-well plate (8,000-40,000 cells in 45 uL media per well). An 11-point 3-fold serial dilution of the compounds were made in DMSO then diluted in media in an intermediate plate. Compound was transferred from the intermediate plate to the cell plate with the top dose at a final concentration of 10 uM in the well. Final DMSO concentration was kept at or below 0.25%. Final volume was 100 uL for 96-well plate and 50 uL for 384-well plate. The cell plate was then placed in an incubator at 37° C. with 5% CO2 for 24 hours.
(§8) The cells were then gently washed with 50 uL-100 uL cold PBS before proceeding to addition of lysis buffer. 30 uL-50 μL of room temperature lysis buffer with DNAse I (and optionally RNAsin) was added to each well. Cells were shaken/mixed thoroughly at room temperature for 5-10 minutes for lysis to take place and then 3 uL-5 μL of room temperature stop solution was added and wells were shaken/mixed again. After 2-5 minutes, the cell lysate plate was transferred to ice for RT-qPCR reaction setup. The lysates could also be frozen at −80° C. for later use.
(§9) In some cases, a direct lysis buffer was used. An appropriate volume of 3× lysis buffer (10 mM Tris, 150 mM NaCl, 1.5%-2.5% Igepal and 0.1-1 U/uL RNAsin, pH 7.4) was directly added to either K562 or A673 cells in media and mixed by pipetting 3 times. The plates were then incubated at room temperature with shaking/rocking for 20-50 minutes to allow for lysis to take place. After this time, the cell lysate plate was transferred to ice to set up for the RT-qPCR reactions. The lysates could also be frozen at −80° C. for later use.
(§10) To set up 10 uL RT-qPCR reactions, cell lysates were transferred to 384-well qPCR plates containing the master mix according to the table below. The plates were sealed, gently vortexed, and spun down before the run. The volumes were adjusted accordingly in some instances where the reaction was carried in 20 μL. The table below summarizes the components of the RT-qPCR reactions:
(§11) The RT-qPCR reaction was performed using a QuantStudio (ThermoFisher) under the following fast cycling conditions. […]
A general note: Quantitative PCR measures a nucleic acid by following its amplification.

The test system of test [4] is HTT. Put plainly: Splicing RT-qPCR assay, HTT mRNA canonical junction (CJ) and alternative junction (AJ). The following applies: Homo sapiens; for AC50: increase in AJ mRNA. The protocol:
as §5, §6, §7, §8, §9, §10, §11

Test [5] relates to Target C. Put plainly: HiBiT protein abundance assay, Target C. Conditions: Homo sapiens, K562, 24 h, modified K562 cells. As to the method: • Promega Nano-Glo HiBiT Lytic Detection System (cat #N3030) • Coming 384-well TC-treated microplates (cat #3570) • Synthego Engineered Cells Knock-In Clones
as §2, §3, §4

Test [6] deals with MYB. As to the kind of experiment: Splicing RT-qPCR assay, MYB mRNA canonical junction (CJ) and alternative junction (AJ). The following applies: Homo sapiens; for AC50: increase in AJ mRNA. The protocol:
as §5, §6, §7, §8, §9, §10, §11

Test [7] has as its system SMN2. As to the kind of experiment: Splicing RT-qPCR panel, SMN2 canonical junction (CJ) mRNA. The following applies: Homo sapiens, RT-qPCR panel, canonical junction mRNA; compound concentration having 50% response in CJ decrease; read-out: SMN2 IC50 (decrease in CJ mRNA levels). As to the method: as §5, §6, §7, §8, §9, §10, §11
Setting [8] is: RT-qPCR panel, canonical junction mRNA, compound concentration having 50% response in CJ decrease.
[9] abbreviates: 24 h, A673 or K562 cells, 24 hours treatment, RT-qPCR.
[10] abbreviates: 24 h, decrease in CJ mRNA, A673 or K562 cells, 24 hours treatment, RT-qPCR, read-out: MYB CJ IC50.
The mark [11] stands for this setting: RT-qPCR panel, canonical junction mRNA, compound concentration having 50% response in CJ decrease, read-out: MYB IC50 (decrease in CJ mRNA levels).
The mark [12] stands for this setting: 24 h, decrease in CJ mRNA, A673 or K562 cells, 24 hours treatment, RT-qPCR, read-out: HTT CJ IC50.
[13] abbreviates: RT-qPCR panel, canonical junction mRNA, compound concentration having 50% response in CJ decrease, read-out: HTT IC50 (decrease in CJ mRNA levels).
[14] abbreviates: gene panel, CJ qPCR, protocol of Example 142, read-out: MYB IC50 (decrease in CJ mRNA levels).

Broadly, the IC50 is the concentration that inhibits the measured activity by half. Broadly, the AC50 is the concentration giving half of the maximal activity seen. A low value points to activity at low concentration.

Consider `C[C@H]1C[C@@H](N(C)c2ccc(-c3ccc(-n4cccn4)c4cc[nH]c34)nn2)CCN1` [Compound 111], for which the IC50 is 1 to 10 µM in test [1] (Table 13A); 1 to 10 µM in test [2] (Table 13A); over 10 µM in test [3] (setting [8]); 1 to 10 µM in test [5] (Table 13A); 1 to 10 µM in test [6] (setting [10]); 1 to 10 µM in test [6] (setting [11]). In addition, the half-maximal activity concentration (AC50) in test [4] (setting [9]) and in test [6] (setting [9]) was over 10 µM throughout.
In the case of `CN(c1ccc(-c2ccc(-n3cccn3)c3cc[nH]c23)nn1)[C@@H]1C[C@H]2CC[C@@H](C1)N2` [Compound 113], the IC50 in test [1] (Table 13A) is 1 to 10 µM; in test [2] (Table 13A), 1 to 10 µM; in test [5] (Table 13A), 1 to 10 µM; in test [6] (setting [10]), over 10 µM; in test [6] (setting [11]), over 10 µM. Also, the AC50 in test [6] (setting [9]) was over 10 µM.
Consider `C[C@@H]1C[C@H](N(C)c2ccc(-c3ccc(-c4cn[nH]c4)c4nn[nH]c34)nn2)CCN1` [Compound 115], for which the IC50 in test [1] (Table 13A), in test [2] (Table 13A), in test [5] (Table 13A), in test [6] (setting [10]) and in test [6] (setting [11]) was over 10 µM throughout. Moreover, the AC50 in test [6] (setting [9]) is over 10 µM.
As for `C[C@@H]1C[C@H](N(C)c2ccc(-c3ccc(-n4cccn4)c4nn[nH]c34)nn2)CCN1` [Compound 117], the IC50 in test [1] (Table 13A), in test [2] (Table 13A), in test [3] (setting [8]), in test [5] (Table 13A), in test [6] (setting [10]) and in test [6] (setting [11]) was 1 to 10 µM throughout. The half-maximal activity concentration (AC50) in test [4] (setting [9]) and in test [6] (setting [9]) was 1 to 10 µM in each case.
Consider `CN(c1ccc(-c2ccc(-c3cn[nH]c3)c3nn[nH]c23)nn1)[C@@H]1C[C@H]2CC[C@@H](C1)N2` [Compound 118], for which the IC50 in test [1] (Table 13A) is 1 to 10 µM; in test [2] (Table 13A), 1 to 10 µM; in test [3] (setting [8]) it was 1 to 10 µM; in test [5] (Table 13A), 1 to 10 µM; in test [6] (setting [10]), over 10 µM; in test [6] (setting [11]) it was over 10 µM. In addition, the AC50 in test [4] (setting [9]) was over 10 µM; in test [6] (setting [9]) it was 1 to 10 µM.
For the molecule `C[C@@H]1C[C@H](N(C)c2ccc(-c3ccc(-c4cn[nH]c4)c4c3NC(=O)C4)nn2)CCN1` [Compound 121], the IC50 in test [1] (Table 13A), in test [2] (Table 13A), in test [5] (Table 13A), in test [6] (setting [10]) and in test [6] (setting [11]) was over 10 µM each time. The molecule also had an AC50 in test [6] (setting [9]) of over 10 µM.
For the molecule `CN(c1ccc(-c2ccc(-c3cn[nH]c3)c3ccsc23)nn1)C1CC(C)(C)NC(C)(C)C1` [Compound 131], the half-inhibitory concentration (IC50) was 1 to 10 µM in test [4] (setting [12]); 1 to 10 µM in test [4] (setting [13]); 0.1 to 1 µM in test [7]; over 10 µM in test [6] (setting [10]); over 10 µM in test [6] (setting [11]). Also, the AC50 in test [4] (setting [9]) and in test [6] (setting [9]) was over 10 µM in each case.
`CN(c1ccc(-c2ccc(-n3cccn3)c3cn[nH]c23)nn1)C1CC(C)(C)NC(C)(C)C1` [Compound 150]: the IC50 in test [4] (setting [12]), in test [4] (setting [13]), in test [7], in test [6] (setting [10]) and in test [6] (setting [11]) was 0.1 to 1 µM each time. For the same molecule, the AC50 in test [4] (setting [9]) fell in the range of 1 to 10 µM; in test [6] (setting [9]) it was 0.1 to 1 µM.
As to `C[C@@H]1C[C@H](N(C)c2ccc(-c3ccc(-c4cn[nH]c4)c(=O)[nH]3)nn2)CCN1` [Compound 901], the IC50 in test [1] (Table 13B), in test [2] (Table 13B), in test [5] (Table 13B) and in test [6] (setting [14]) was over 10 µM in each case.
As for `C[C@H]1C[C@@H](N(C)c2ccc(-c3ccc(-n4cccn4)c(=O)[nH]3)nn2)CCN1` [Compound 903], the IC50 in test [1] (Table 13B) is over 10 µM; in test [2] (Table 13B) it was over 10 µM; in test [3] (gene panel, CJ qPCR, protocol of Example 142), over 10 µM; in test [5] (Table 13B), over 10 µM; in test [6] (setting [14]) it was over 10 µM.

The values are drawn from patent publication US20240368163A1, “COMPOUNDS AND METHODS FOR MODULATING SPLICING” (REMIX THERAPEUTICS INC., priority 2021, published 2024).
